# From patent US7071203B2, “Pharmaceutically acceptable salts of 20(s)-camptothecins” (Dr. Reddy's Laboratories Limited, priority 2001, dated 2006)
# Counter-ions that a name gives are not always drawn. Like-named read-outs stand apart in the source and are kept apart here.
# Experiments:
# SW-620 = assay: Sulforhodamine B growth inhibition, colon cell line SW-620; type: cell-based, human; conditions: COLON: SW-620, 48 h
# Method: (§1) Each test compound was screened against a battery of cell lines representing eight different types of cancers. In a typical procedure, 1×10^4 cells were seeded into each well of 96 well plate in 100 μL volume of RPMI 1640 medium containing antibiotics and 10% FCS.
# (§2) The plates were incubated at 37° C. in presence of CO2. After 24 h, test compounds were evaluated at five 10-fold dilutions ranging from 100 to 0.01 μM. To each test well 100 μL of test compound solution was added and medium with vehicle was added to control wells and the plates were further incubated. After 48 h of incubation, plates were terminated by Sulforhodamine B method.
# (§3) The optical density, which is proportional to protein mass, is then read by automated spectrophotometric plate reader at a wavelength of 515 nm. Readings were transferred to a microcomputer and mean 50% Growth Inhibition (GI50) and mean Total Growth Inhibition were calculated.
# MCF-7/ADR = assay: Sulforhodamine B growth inhibition, breast cell line MCF-7/ADR; type: cell-based, human; conditions: 48 h; for GI50: Homo sapiens, NCI/ADR-RES, read-out: Growth Inhibition (GI 50)
# Method: as §1, §2, §3
# UACC-62 = assay: Sulforhodamine B growth inhibition, melanoma cell line UACC-62; type: cell-based, human; conditions: for GI50: Homo sapiens, read-out: Growth Inhibition (GI 50)
# Method: as §1, §2, §3
# PC-3 = assay: Sulforhodamine B growth inhibition, prostate cell line PC-3; type: cell-based, human; conditions: PROSTATE: PC-3, 48 h
# Method: as §1, §2, §3
# DU-145 = assay: Sulforhodamine B growth inhibition, prostate cell line DU-145; type: cell-based, human; conditions: for GI50: Homo sapiens, read-out: Growth Inhibition (GI 50)
# Method: as §1, §2, §3
# H 522 = assay: Sulforhodamine B growth inhibition, lung cell line H 522; type: cell-based, human
# Method: as §1, §2, §3
# SKOV-3 = assay: Sulforhodamine B growth inhibition, ovarian cell line SKOV-3; type: cell-based, human
# Method: as §1, §2, §3
# U251 = assay: Sulforhodamine B growth inhibition, CNS cell line U251; type: cell-based, human
# Method: as §1, §2, §3
# [1] = Single dose oral pharmacokinetic studies; type: in vivo, Male Swiss Albino Mice
# Method: Male Swiss Albino Mice (20–30 g) were used in the experiments. The animals were maintained under standard laboratory conditions and had free access to feed and water ad libitum. Before experimentation animals were fasted overnight (˜15 h) during which they had free access to water ad libitum.
# An amount equivalent to 10 mg of drug was weighed accurately and transferred into a clean mortar and triturated to obtain a fine powder. To this 500 μl of DMSO (10%) was added to obtain a clear solution. To this 4.5 ml of sodium carboxy methyl cellulose (sodium CMC) was added to make up the volume to 5 ml. Based on the animal weight appropriate volume (body weight in grams×10=no. of μl of dose to be given) of the prepared solution was administered through oral gavage.
# After dosing, at designated time points (0.5, 1, 2, 3, 5, 8 and 12 h) 100 μl of blood was collected from retro orbital plexus into 0.5 ml eppendorff tubes containing EDTA (5 μl of 200 mg/ml solution in Milli Q water). Blood was centrifuged at 12,800 rpm for 2 min and plasma was separated and immediately taken for analysis, without delay, in order to estimate both lactone and carboxylate forms of the compound.
# 50 μl plasma was transferred into a clean 2 ml micro centrifuge tube. To this ice cold methanol was added (450 μl) and vertex mixed for 15 sec to extract the compound. These contents were centrifuged for 2 min at 12,800 rpm dry centrifuge tube. Clear supernatant was separated in to a 300 μl of auto sampler vial maintained at 4° C. and 20 μl of this was injected into HPLC column. HPLC Conditions:
# HPLC system (Shimadzu) consisted of system controller (SCL-10AVP), Isocratic pump (LC-10ATVP), auto sampler (SIL-10ADVP), fluorescence detector (RF-10AXL) and column oven at 25° C. (CTO-1OASVP) was controlled by Class-VP software. Sample was eluted through column (Supelcosil-LC318, 5μ, 4.6×250 mm, 300° A) with mobile phase [1% TEAA (pH=5.5):Acetonitrile:MeOH::80:15:5) pumped at 1.0 ml/min flow rate and eluent was detected using fluorescence detector set at Ex. 370 nm/Em. 537 nm. The approx. RTs were carboxylate (CA1=4.1 min, CA2=4.8 min) and lactone (LA1=7.9 min, LA2=11.6 min).
# For the determination of drug concentration, peak area ratios of the drug to internal standard versus the concentration (range: 0.05–10 μg/ml) for both carboxylate and lactone forms were plotted separately and linear regression was applied using software “Sigma Plot” (Jandel Scientific version, 2.0, USA). Correlation coefficients (r^2) of 0.99 or better were obtained.
# Pharmacokinetic parameters were calculated for both carboxylate and lactone forms separately by non-compartmental model analysis. The peak plasma concentration (Cmax) and the corresponding time (Tmax) were directly obtained from the raw data. The area under the plasma concentration versus time curve up to the last quantifiable time point, AUC(0-t) was obtained by the linear and log-linear trapezoidal summation. The AUC(0-t) extrapolated to infinity (i.e., AUC (0-∞)) by adding the quotient of Clast/Kel, where Clast represents the last measurable time concentration and Kel represents the apparent terminal rate constant. Kel was calculated by the linear regression of the log-transformed concentrations of the drug in the terminal phase. The half-life of the terminal elimination phase was obtained using the relationship t1/2=0.693/ Kel.
# MCF 7 = assay: Sulforhodamine B growth inhibition, breast cell line MCF 7; type: cell-based, human
# Method: as §1, §2, §3
# A 498 = assay: Sulforhodamine B growth inhibition, renal cell line A 498; type: cell-based, human
# Method: as §1, §2, §3
# PA-1 = assay: Sulforhodamine B growth inhibition, ovarian cell line PA-1; type: cell-based, human; conditions: OVARIAN: PA-1, 48 h
# Method: as §1, §2, §3
# SF-268 = assay: Sulforhodamine B growth inhibition, CNS cell line SF-268; type: cell-based, human; conditions: CNS: SF-268, 48 h; for GI50: Homo sapiens, read-out: Growth Inhibition (GI 50)
# Method: as §1, §2, §3
# OVCAR-8 = assay: Sulforhodamine B growth inhibition, ovarian cell line OVCAR-8; type: cell-based, human; conditions: OVARIAN: OVCAR-8, 48 h; for GI50: Homo sapiens, read-out: Growth Inhibition (GI 50)
# Method: as §1, §2, §3
# HOP-62 = assay: Sulforhodamine B growth inhibition, lung cell line HOP-62; type: cell-based, human; conditions: LUNG: HOP-62, 48 h; for GI50: Homo sapiens, read-out: Growth Inhibition (GI 50)
# Method: as §1, §2, §3
# ACHN = assay: Sulforhodamine B growth inhibition, renal cell line ACHN; type: cell-based, human; conditions: 48 h; for GI50: Homo sapiens, read-out: Growth Inhibition (GI 50)
# Method: as §1, §2, §3
# [2] = Homo sapiens, read-out: Growth Inhibition (GI 50)
# [3] = BREAST: MCF-7/ADR, Sulforhodamine B
# [4] = MELANOMA: UACC-62, 48 h, Sulforhodamine B
# [5] = PROSTATE: DU-145, 48 h, Sulforhodamine B
# [6] = Lactone, single oral dose, mice, plasma, n = 3
# [7] = male, Swiss Albino, mouse, in vivo, po
smiles,measurement,setting,value
"CC[C@@]1(O)C(=O)OCc2c1cc1n(c2=O)C(OCCF)c2cc3c(CN(C)C)c(O)ccc3nc2-1 (stereo partly drawn) [Example 3, 10-Hydroxy-9-N,N-dimethylaminomethyl-5-(2′-fluoroethoxy)-20(S)-camptothecin hydrochloride]",Total Growth Inhibition (TGI),SW-620,>100 µM
same,GI50,SW-620; [2],60 µM
same,Total Growth Inhibition (TGI),MCF-7/ADR; [3],>100 µM
same,GI50,MCF-7/ADR; [3],8 µM
same,GI50,UACC-62; [4],1.5 µM
same,Total Growth Inhibition (TGI),UACC-62; [4],8.0 µM
same,GI50,PC-3; [2],9 µM
same,Total Growth Inhibition (TGI),PC-3,>100 µM
same,GI50,DU-145; [5],4 µM
same,Total Growth Inhibition (TGI),DU-145; [5],>100 µM
same,GI50,"H 522; Homo sapiens, NCI-H522, LUNG: H 522, 48 h, read-out: Growth Inhibition (GI 50)",0.9 µM
same,Total Growth Inhibition (TGI),"H 522; LUNG: H 522, 48 h",90.0 µM
same,GI50,"SKOV-3; Homo sapiens, SK-OV-3, OVARIAN: SKOV-3, 48 h, read-out: Growth Inhibition (GI 50)",6 µM
same,Total Growth Inhibition (TGI),"SKOV-3; OVARIAN: SKOV-3, 48 h",40.0 µM
same,Total Growth Inhibition (TGI),U251; 48 h,>100 µM
same,GI50,"U251; Homo sapiens, U-251, 48 h, read-out: Growth Inhibition (GI 50)",1.5 µM
same,Kel,[1]; [6],0.19 h⁻¹
same,"T1/2β(4,6,8h)^@",[1]; [6],422 min
same,AUC(0-inf),[1]; [7],9.74 µM·h
same,AUC(0-t),[1]; [7],6.1 µM·h
same,AUC(0–t),[1]; [7],11.05 µM·h
same,AUC(0–∞),[1]; [7],15.14 µM·h
same,Tmax,[1]; [7],15 min
same,Total Growth Inhibition (TGI),"MCF 7; BREAST: MCF 7, 48 h",10.0 µM
same,GI50,"MCF 7; Homo sapiens, MCF7, BREAST: MCF 7, 48 h, read-out: Growth Inhibition (GI 50)",7.5 µM
same,GI50,"A 498; Homo sapiens, A498, RENAL: A 498, 48 h, read-out: Growth Inhibition (GI 50)",0.7 µM
same,Total Growth Inhibition (TGI),"A 498; RENAL: A 498, 48 h",15.0 µM
same,GI50,PA-1; [2],1 µM
same,Total Growth Inhibition (TGI),PA-1,5.0 µM
"CC[C@@]1(O)C(=O)OCc2c1cc1n(c2=O)C(OCCO)c2cc3c(CN(C)C)c(O)ccc3nc2-1 (stereo partly drawn) [Example 2, 10-Hydroxy-9-N,N-dimethylaminomethyl-5-(2′-hydroxyethoxy)-20(S)-camptothecin hydrochloride]",Total Growth Inhibition (TGI),MCF-7/ADR; [3],50.0 µM
same,GI50,MCF-7/ADR,7.5 µM
same,Total Growth Inhibition (TGI),SF-268,>100 µM
same,GI50,SF-268,7.5 µM
same,GI50,"UACC-62; UACC-62, 48 h",6 µM
same,Total Growth Inhibition (TGI),UACC-62; [4],6.0 µM
same,GI50,"DU-145; DU-145, 48 h",5.5 µM
same,Total Growth Inhibition (TGI),DU-145; [5],25.0 µM
same,GI50,OVCAR-8,1 µM
same,Total Growth Inhibition (TGI),OVCAR-8,80.0 µM
same,GI50,HOP-62,8 µM
same,Total Growth Inhibition (TGI),HOP-62,>100 µM
same,Total Growth Inhibition (TGI),ACHN,40.0 µM
same,GI50,ACHN,4 µM
"CC[C@@]1(O)C(=O)OCc2c1cc1n(c2=O)C(O)c2cc3c(CN(C)C)c(O)ccc3nc2-1 (stereo partly drawn) [Example 1, 10-Hydroxy-9-N,N-dimethylaminomethyl-5-hydroxy-20(S)-camptothecin hydrochloride]",Total Growth Inhibition (TGI),MCF-7/ADR; [3],0.9 µM
same,GI50,MCF-7/ADR,0.25 µM
same,Total Growth Inhibition (TGI),SF-268,90.0 µM
same,GI50,SF-268,0.55 µM
same,GI50,"UACC-62; UACC-62, 48 h",0.7 µM
same,Total Growth Inhibition (TGI),UACC-62; [4],4.5 µM
same,GI50,"DU-145; DU-145, 48 h",0.4 µM
same,Total Growth Inhibition (TGI),DU-145; [5],0.8 µM
same,GI50,OVCAR-8,0.5 µM
same,Total Growth Inhibition (TGI),OVCAR-8,>100 µM
same,GI50,HOP-62,0.6 µM
same,Total Growth Inhibition (TGI),HOP-62,25.0 µM
same,Total Growth Inhibition (TGI),ACHN,1.0 µM
same,GI50,ACHN,0.4 µM
